Assay results as given in US12264156B2, “Compounds and pharmaceutical compositions thereof for the treatment of diseases” (GALAPAGOS NV, priority 2018, dated 2025).

Columns and labels:
[1] = system: LPS-induced TNFα in monocytes; assay: Monocytes assay: LPS-triggered TNFα (ELISA); assay type: cell-based, human; conditions: Homo sapiens, Monocyte, LPS 200 ng/mL, supernatant after 4 h
Procedure: (§1) SIK inhibition inhibits TNFα and increases IL-10 release in LPS triggered monocyte-derived macrophages (MdM) and dendritic cells (MdDCs) (Clark et al. 2012; Sundberg et al. 2014; Ozanne et al. 2015). This assay evaluates illustrative compounds of the invention for their inhibition of LPS-induced TNFα and LPS triggered IL-10 secretion in monocytes.
(§2) PBMCs are isolated from human blood samples (buffycoats). The buffy coat is aseptically transferred into a 50 mL Falcon tube, and diluted 1/2 in PBS. Falcon tubes are filled with 20 mL Lymphoprep™, on top of which 25 mL of the buffy coat is carefully added, tubes are centrifuged for 35 min at 400 g in temperature controlled centrifuge, without brake, at 25° C. PBMCs are aspirated from the white interface layer between sample and Lymphoprep™. PBMCs are washed five times in PBS. Cells are resuspended in RPMI 1640 complete medium supplemented with 10% FBS, 1% P/S, and cell density is determined using a hematologic analyzer (Sysmex XS-500i).
(§3) PBMCs are centrifuged at 300×g for 10 min and resuspended at a density of 1.0*10^7 cells/80 μL Miltenyi buffer (PBS, pH 7.4, 1% FBS, 2 mM EDTA).
(§4) Starting from this point of the protocol all steps are performed on ice. 20 μL of CD14+ micro-beads are added per 1.0*10^7 cells, the tube is mixed and incubated for 15 min in the fridge at 4° C. Cell suspension volume is adjusted to total volume of 100 mL using Miltenyi buffer, mixed gently and subsequently centrifuged for 10 min at 300×g. Supernantant is discarded and cell pellet is resuspended in 12 mL of Miltenyi buffer.
(§5) Four LS columns are placed in the MACS Separator (magnet) from Miltenyi Biotec, and are prewet by rinsing with 3 mL of MACS buffer per column. Three mL of cell suspension is added onto the column (max 1*10^8 of labelled cells/column), and columns are subsequently washed 3 times with 3 mL of Miltenyi buffer.
(§6) The columns are removed from the magnets, and 5 mL of Miltenyi buffer are added to the column to flush out the CD14+ fraction by pushing the plunger into the column. The flushed fractions are collected in a fresh 50 mL Falcon and volume is adjusted to 30 mL using Miltenyi buffer, cells are centrifuged for 10 min at 300×g. The obtained cell pellet is resuspended in 10 mL RPMI w/o FBS, and cell density is determined using a hematologic analyser (Sysmex XS-500i). 100 000 cells are seeded in 80 μL per well of a 96-well plate in RPMI 1640 medium supplemented with 10% FBS, 1% P/S.
(§7) A compound dilution plate is made in 100% DMSO by 3-fold dilution of 10 mM stock solution. An intermediate dilution plate (10× final concentration) is made by diluting the compound dilution plate 50-fold in RPMI medium.
(§8) 10 μL of the 10× final concentration compound is added to the cells and incubated for 1 h at 37° C. before addition of trigger. No trigger conditions/trigger conditions are spiked with equal final DMSO concentrations of 0.2% DMSO. 10 μL of 10×LPS (final conc. 200 ng/mL) solution are added to all wells except for the ‘no trigger wells’ where 10 μL medium is added. Supernatant is collected after 4 h of LPS triggering.
A Lumitrac 600 Greiner 384-well plate is coated with 40 μL of capture antibody (BD Pharmingen, Cat #551220) reaching a final concentration of 1 μg/mL in 1×PBS and stored overnight at 4° C.
The plate is then washed once with PBST (PBS+0.05% Tween20) and once with PBS followed by the addition of 100 μL of blocking buffer (1% Bovine Serum Albumin (BSA)−5% Sucrose) and plates are sealed and incubated for at least 4 h at RT. After washing the plate once with PBST and once with PBS, […]. Plates are washed twice with PBST, and once with PBS, after which 35 μL of the detection antibody is added (final concentration 0.25 μg/mL diluted in dilution buffer) and plates are incubated for at least 2 h at RT. […]

SIK1 = biological target: T1, SIK1 (Homo sapiens, UniProt P57059); assay: ADP-Glo kinase assay, SIK1; assay type: biochemical; conditions: ADP-Glo SIK kinase assay
T1 construct: purchased Carna Biosciences 02-131
T1 sequence (P57059 whole entry): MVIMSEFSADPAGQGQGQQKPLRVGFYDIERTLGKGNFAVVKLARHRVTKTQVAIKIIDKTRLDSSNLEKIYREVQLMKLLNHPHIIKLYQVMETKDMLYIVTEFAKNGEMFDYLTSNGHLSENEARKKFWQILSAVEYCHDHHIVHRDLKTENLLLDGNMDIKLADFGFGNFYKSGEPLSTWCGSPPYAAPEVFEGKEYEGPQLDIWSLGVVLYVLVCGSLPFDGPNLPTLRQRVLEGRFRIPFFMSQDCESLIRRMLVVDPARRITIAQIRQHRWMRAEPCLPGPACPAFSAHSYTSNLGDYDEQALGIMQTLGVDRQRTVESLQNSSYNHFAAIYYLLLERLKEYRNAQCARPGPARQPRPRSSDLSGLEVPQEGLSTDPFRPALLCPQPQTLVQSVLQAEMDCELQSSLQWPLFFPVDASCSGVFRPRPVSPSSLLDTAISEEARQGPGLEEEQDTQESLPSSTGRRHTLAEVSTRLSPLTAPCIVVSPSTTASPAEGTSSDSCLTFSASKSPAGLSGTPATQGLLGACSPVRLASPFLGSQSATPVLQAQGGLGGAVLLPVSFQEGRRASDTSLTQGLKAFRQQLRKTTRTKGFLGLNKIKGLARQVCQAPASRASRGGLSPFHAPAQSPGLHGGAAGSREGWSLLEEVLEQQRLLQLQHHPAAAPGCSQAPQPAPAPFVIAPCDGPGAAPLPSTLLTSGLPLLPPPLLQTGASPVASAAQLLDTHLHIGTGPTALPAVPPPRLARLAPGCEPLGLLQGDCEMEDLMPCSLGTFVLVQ
In short: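 Wells with 1% DMSO or 10 μM staurosporine (final) define the control window. The kinase reaction with substrate and ATP runs 120 min at RT, followed by ADP-Glo detection: ATP depletion (40 min) and ADP-derived luminescence (30 min).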

SIK3 = biological target: T2, SIK3 (Homo sapiens, UniProt Q9Y2K2); assay: ADP-Glo kinase assay, SIK3; assay type: biochemical; conditions: ADP-Glo SIK kinase assay
T2 construct: purchased SignalChem S12-11G-100
T2 sequence (Q9Y2K2 whole entry): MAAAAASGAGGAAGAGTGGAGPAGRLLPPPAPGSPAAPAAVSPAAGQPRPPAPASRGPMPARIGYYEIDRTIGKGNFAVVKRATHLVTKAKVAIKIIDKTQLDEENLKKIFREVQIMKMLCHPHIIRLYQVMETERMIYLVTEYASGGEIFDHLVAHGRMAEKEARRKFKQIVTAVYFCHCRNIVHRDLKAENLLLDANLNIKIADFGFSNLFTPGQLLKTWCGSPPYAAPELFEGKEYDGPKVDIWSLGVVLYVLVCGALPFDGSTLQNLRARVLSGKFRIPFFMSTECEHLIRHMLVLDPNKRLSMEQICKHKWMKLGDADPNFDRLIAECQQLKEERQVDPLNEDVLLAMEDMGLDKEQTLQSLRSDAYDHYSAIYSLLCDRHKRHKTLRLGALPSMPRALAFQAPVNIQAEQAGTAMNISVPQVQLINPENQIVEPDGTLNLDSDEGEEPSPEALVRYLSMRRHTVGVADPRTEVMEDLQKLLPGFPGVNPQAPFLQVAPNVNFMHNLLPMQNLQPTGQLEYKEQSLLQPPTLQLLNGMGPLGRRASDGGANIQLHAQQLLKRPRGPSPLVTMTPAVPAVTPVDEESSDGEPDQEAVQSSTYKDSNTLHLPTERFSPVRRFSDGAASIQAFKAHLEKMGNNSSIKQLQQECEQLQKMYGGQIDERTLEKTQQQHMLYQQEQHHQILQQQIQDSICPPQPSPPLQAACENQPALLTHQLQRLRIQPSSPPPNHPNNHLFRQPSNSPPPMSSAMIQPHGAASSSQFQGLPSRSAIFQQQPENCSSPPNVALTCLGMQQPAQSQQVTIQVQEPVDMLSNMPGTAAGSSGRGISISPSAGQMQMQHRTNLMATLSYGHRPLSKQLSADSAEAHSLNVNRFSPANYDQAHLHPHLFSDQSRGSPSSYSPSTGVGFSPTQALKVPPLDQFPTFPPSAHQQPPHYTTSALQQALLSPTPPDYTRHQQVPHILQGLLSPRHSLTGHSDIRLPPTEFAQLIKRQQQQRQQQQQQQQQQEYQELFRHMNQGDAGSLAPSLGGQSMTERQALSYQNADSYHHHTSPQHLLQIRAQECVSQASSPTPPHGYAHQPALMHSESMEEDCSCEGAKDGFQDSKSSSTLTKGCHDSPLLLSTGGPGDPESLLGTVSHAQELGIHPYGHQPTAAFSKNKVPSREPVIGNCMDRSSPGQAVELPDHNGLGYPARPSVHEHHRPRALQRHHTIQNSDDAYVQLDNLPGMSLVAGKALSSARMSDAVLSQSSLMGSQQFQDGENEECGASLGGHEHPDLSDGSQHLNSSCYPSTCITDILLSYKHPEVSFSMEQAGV
In short: (§9)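 ADP-Glo, RT throughout. Enz/substrate + ATP, 120 min; ADP-Glo reagent 40 min (ATP depletion); detection reagent 30 min; luminescence read. Neg ctrl 1% DMSO, pos ctrl 10 μM staurosporine, final concs.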

[2] = system: LPS triggered IL-10 secretion in monocytes; assay: Monocytes assay: LPS-triggered IL-10 (ELISA); assay type: cell-based, human; conditions: LPS 200 ng/mL, supernatant after 4 h, maximal fold change vs LPS only
Procedure: as §1, §2, §3, §4, §5, §6, §7, §8
A Lumitrac 600 Greiner 384-well plate is coated with 40 μL of capture antibody (final concentration of 1 μg/mL in 1×PBS) and stored overnight at 4° C. The next day the plate is washed three times with PBST (PBS+0.05% Tween20) and once with PBS followed by the addition of 100 μL of blocking buffer (1% BSA−5% Sucrose) and plates are sealed and incubated for at least 4 h at RT. After washing the plate once with PBST and once with PBS, 40 μL of standard or sample are added (IL-10 standard curve is prepared using a 1/2 serial dilution starting from […]; dilutions are made in dilution buffer (PBS+1% BSA)). Plates are washed twice with PBST, and once with PBS, after which 35 μL of the detection antibody is added (final concentration 0.143 μg/mL diluted in dilution buffer) and plates are incubated for at least 2 h at RT. […]

SIK2 = biological target: T3, SIK2 (Homo sapiens, UniProt Q9H0K1); assay: ADP-Glo kinase assay, SIK2; assay type: biochemical; conditions: ADP-Glo SIK kinase assay
T3 construct: purchased ThermoFisher Scientific PV4792
T3 sequence (Q9H0K1 whole entry): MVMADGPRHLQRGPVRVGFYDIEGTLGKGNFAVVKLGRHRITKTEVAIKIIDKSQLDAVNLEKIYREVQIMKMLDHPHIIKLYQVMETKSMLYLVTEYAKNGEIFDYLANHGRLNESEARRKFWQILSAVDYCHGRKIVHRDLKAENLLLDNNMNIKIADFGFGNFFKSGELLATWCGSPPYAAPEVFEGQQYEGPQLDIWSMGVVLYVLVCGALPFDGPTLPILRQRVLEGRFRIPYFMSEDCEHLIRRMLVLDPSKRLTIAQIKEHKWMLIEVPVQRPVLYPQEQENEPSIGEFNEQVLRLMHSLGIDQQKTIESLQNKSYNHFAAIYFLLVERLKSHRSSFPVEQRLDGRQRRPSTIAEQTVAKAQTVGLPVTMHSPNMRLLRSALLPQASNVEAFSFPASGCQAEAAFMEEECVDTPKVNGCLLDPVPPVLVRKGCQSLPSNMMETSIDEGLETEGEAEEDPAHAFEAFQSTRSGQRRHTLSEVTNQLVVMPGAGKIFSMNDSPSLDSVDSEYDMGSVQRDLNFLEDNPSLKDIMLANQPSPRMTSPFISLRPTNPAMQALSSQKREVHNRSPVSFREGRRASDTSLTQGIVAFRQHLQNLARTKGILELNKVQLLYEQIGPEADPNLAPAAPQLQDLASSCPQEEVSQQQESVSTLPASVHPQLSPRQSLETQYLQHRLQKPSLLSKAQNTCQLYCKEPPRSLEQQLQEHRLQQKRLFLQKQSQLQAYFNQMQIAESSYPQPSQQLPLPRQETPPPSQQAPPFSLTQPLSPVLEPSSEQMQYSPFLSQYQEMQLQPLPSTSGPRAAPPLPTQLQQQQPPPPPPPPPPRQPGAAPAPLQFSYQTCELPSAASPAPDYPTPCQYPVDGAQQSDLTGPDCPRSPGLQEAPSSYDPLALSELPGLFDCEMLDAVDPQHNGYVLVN
In short: as §9

[3] = system: LPS-induced TNFα in monocyte-derived macrophages (MdM); assay: MdM assay: LPS-triggered TNFα (ELISA); assay type: cell-based, human; conditions: Homo sapiens, Macrophage, 20 h, monocyte-derived macrophages, LPS 200 ng/mL, supernatant after 20 h; read-out: TNFα EC50
Procedure: This assay evaluates illustrative compounds of the invention for their inhibition of LPS-induced TNFα and LPS triggered IL-10 secretion in monocyte-derived macrophages.
as §2, with “PBS.” for “PBS. Cells are resuspended in RPMI 1640 complete medium supplemented with 10% FBS, 1% P/S, and cell density is determined using a hematologic analyzer (Sysmex XS-500i).”
as §3, §4, §5
as §6, with “XS-500i).” for “XS-500i). 100 000 cells are seeded in 80 μL per well of a 96-well plate in RPMI 1640 medium supplemented with 10% FBS, 1% P/S.”
On day 10, MdMs are triggered and compound is added.
as §7
Medium is carefully removed from cell plates using multichannel pipette, and replaced by 80 μL fresh medium. 10 μL of the 10× final concentration compound is added to the cells and incubated for 1 hour at 37° C. before addition of trigger. No trigger conditions/trigger conditions are spiked with equal final DMSO concentrations of 0.2% DMSO. 10 μL of 10×LPS (final conc. 200 ng/mL) solution are added to all wells except for the ‘no trigger wells’ where 10 μL medium is added. Supernatant is collected after 2 h (IL-10 determination) and after 20 h (TNFα determination) of LPS triggering.
The plate is then washed once with PBST (PBS+0.05% Tween20) and once with PBS followed by the addition of 100 μL of blocking buffer (1% Bovine Serum Albumin (BSA)−5% Sucrose) and plates are sealed and incubated for at least 4 h at RT. After washing the plate once with PBST and once with PBS, 40 μL of standard or sample are added (TNFα standard curve is prepared using a 1/2 serial dilution starting from […]; dilutions are made in dilution buffer (PBS+1% BSA)). Plates are washed twice with PBST, and once with PBS, after which 35 μL of the detection antibody is added (final concentration 0.25 μg/mL diluted in dilution buffer) and plates are incubated for at least 2 h at RT. Plates are washed twice with PBST, and once with PBS, where after 35 μL of Strep-HRP conjugate (0.5 μg/mL final concentration diluted in dilution buffer) is added. Plates are incubated in the dark, at RT for at least 45 min but no longer than 1 hour. Plates are washed twice with PBST, and once with PBS.

EC50 ([1]; 4 h) | IC50 (SIK1) | IC50 (SIK3) | IC50 (SIK2) | EC50 [3] | Compound | IL-10 FCmax median [2] | EC50 [1]
100 to 1000 nM | 10 to 100 nM | 0.01 to 10 nM | 10 to 100 nM | – | CCOC(=O)COc1ccn2c(-c3cc(OC)c(C(=O)NC4CC4)c(OC(F)F)c3)cnc2c1 [Cpd 268, ethyl 2-[3-[4-(cyclopropylcarbamoyl)-3-(difluoromethoxy)-5-methoxy-phenyl]imidazo[1,2-a]pyridin-7-yl]oxyacetate] | +++ (>4.5) | –
0.1 to 100 nM | 0.01 to 10 nM | 0.01 to 10 nM | 0.01 to 10 nM | – | COc1cc(-c2cnc3cc(OCCCN4CCN(C(C)C)CC4)ccn23)cc(OC(F)F)c1C(=O)NC1CC1 [Cpd 279, N-cyclopropyl-2-(difluoromethoxy)-4-[7-[3-(4-isopropylpiperazin-1-yl)propoxy]imidazo[1,2-a]pyridin-3-yl]-6-methoxy-benzamide] | +++ (>4.5) | –
0.1 to 100 nM | 10 to 100 nM | 0.01 to 10 nM | 0.01 to 10 nM | – | COc1cc(-c2cnc3cc(OCC4CCN(C(C)C)C4)ccn23)cc(OC(F)F)c1C(=O)NC1CC1 (centres unmarked) [Cpd 287, N-cyclopropyl-2-(difluoromethoxy)-4-[7-[(1-isopropylpyrrolidin-3-yl)methoxy]imidazo[1,2-a]pyridin-3-yl]-6-methoxy-benzamide] | ++ (>1.5-4.5) | –
– | 100 to 500 nM | 0.01 to 10 nM | 0.01 to 10 nM | 1000 to 5000 nM | COc1cc(-c2cnc3cc(OCC4(C)CCCCN4)ccn23)cc(OC(F)F)c1C(=O)NC1CC1 (centres unmarked) [compound 172, N-cyclopropyl-2-(difluoromethoxy)-6-methoxy-4-[7-[(2-methyl-2-piperidyl)methoxy]imidazo[1,2-a]pyridin-3-yl]benzamide] | – | –
– | 10 to 100 nM | 0.01 to 10 nM | 0.01 to 10 nM | 100 to 1000 nM | COc1cc(-c2cnc3cc(OCCN4CCOCC4)ccn23)cc(OC(F)F)c1C(=O)NCC(F)(F)F [compound 230, 2-(difluoromethoxy)-6-methoxy-4-[7-(2-morpholinoethoxy)imidazo [1,2-a]pyridin-3-yl]-N-(2,2,2-trifluoroethyl)benzamide] | – | –
– | > 500 nM | 0.01 to 10 nM | 0.01 to 10 nM | 100 to 1000 nM | COc1cc(-c2cnc3cc(OCCN4C[C@@H]5C[C@H]4CO5)ccn23)cc2c1C(=O)N(CC(F)(F)F)CC2 [compound 245, 8-methoxy-6-[7-[2-[(1S,4S)-2-oxa-5-azabicyclo[2.2.1]heptan-5-yl]ethoxy]imidazo[1,2-a]pyridin-3-yl]-2-(2,2,2-trifluoroethyl)-3,4-dihydro isoquinolin-1-one] | +++ (>4.5) | –

Compound | EC50 ([1]; 4 h) | IC50 (SIK1) | IC50 (SIK3) | IC50 (SIK2) | EC50 [3] | IL-10 FCmax median [2] | EC50 [1]
COc1cc(-c2cnc3cc(OC4C[C@H]5CC[C@@H](C4)N5)ccn23)cc(OC(F)F)c1C(=O)NC1CC1.Cl (stereo partly drawn) [Cpd 270, 4-[7-[[(1R,5S)-8-azabicyclo[3.2.1]octan-3-yl]oxy]imidazo[1,2-a]pyridin-3-yl]-N-cyclopropyl-2-(difluoromethoxy)-6-methoxy-benzamide hydrochloride salt] | – | 100 to 500 nM | 0.01 to 10 nM | 10 to 100 nM | – | ++ (>1.5-4.5) | 1000 to 5000 nM
COc1cc(-c2cnc3cc(OC4C[C@H]5CC[C@@H](C4)N5CCC#N)ccn23)cc(OC(F)F)c1C(=O)NC1CC1 (stereo partly drawn) [Cpd 271, 4-[7-[[(1S,5R)-8-(2-cyanoethyl)-8-azabicyclo[3.2.1]octan-3-yl]oxy]imidazo[1,2-a]pyridin-3-yl]-N-cyclopropyl-2-(difluoromethoxy)-6-methoxy-benzamide] | 100 to 1000 nM | 100 to 500 nM | 0.01 to 10 nM | 10 to 100 nM | – | ++ (>1.5-4.5) | –
